Laboratory results published in US20240083897A1, “GCN2 MODULATING COMPOUNDS AND USES THEREOF” (HiberCell, Inc., priority 2021, published 2024).

Molecular target: GCN2 (Homo sapiens (Human), UniProt Q9P2K8)
Test: TR-FRET biochemical assay for inhibition of GCN2
Settings: GCN2 2 nM, 100 nM GFP-eIF2a, 150 μM ATP, TR-FRET

Sequence of GCN2 (Q9P2K8 whole entry): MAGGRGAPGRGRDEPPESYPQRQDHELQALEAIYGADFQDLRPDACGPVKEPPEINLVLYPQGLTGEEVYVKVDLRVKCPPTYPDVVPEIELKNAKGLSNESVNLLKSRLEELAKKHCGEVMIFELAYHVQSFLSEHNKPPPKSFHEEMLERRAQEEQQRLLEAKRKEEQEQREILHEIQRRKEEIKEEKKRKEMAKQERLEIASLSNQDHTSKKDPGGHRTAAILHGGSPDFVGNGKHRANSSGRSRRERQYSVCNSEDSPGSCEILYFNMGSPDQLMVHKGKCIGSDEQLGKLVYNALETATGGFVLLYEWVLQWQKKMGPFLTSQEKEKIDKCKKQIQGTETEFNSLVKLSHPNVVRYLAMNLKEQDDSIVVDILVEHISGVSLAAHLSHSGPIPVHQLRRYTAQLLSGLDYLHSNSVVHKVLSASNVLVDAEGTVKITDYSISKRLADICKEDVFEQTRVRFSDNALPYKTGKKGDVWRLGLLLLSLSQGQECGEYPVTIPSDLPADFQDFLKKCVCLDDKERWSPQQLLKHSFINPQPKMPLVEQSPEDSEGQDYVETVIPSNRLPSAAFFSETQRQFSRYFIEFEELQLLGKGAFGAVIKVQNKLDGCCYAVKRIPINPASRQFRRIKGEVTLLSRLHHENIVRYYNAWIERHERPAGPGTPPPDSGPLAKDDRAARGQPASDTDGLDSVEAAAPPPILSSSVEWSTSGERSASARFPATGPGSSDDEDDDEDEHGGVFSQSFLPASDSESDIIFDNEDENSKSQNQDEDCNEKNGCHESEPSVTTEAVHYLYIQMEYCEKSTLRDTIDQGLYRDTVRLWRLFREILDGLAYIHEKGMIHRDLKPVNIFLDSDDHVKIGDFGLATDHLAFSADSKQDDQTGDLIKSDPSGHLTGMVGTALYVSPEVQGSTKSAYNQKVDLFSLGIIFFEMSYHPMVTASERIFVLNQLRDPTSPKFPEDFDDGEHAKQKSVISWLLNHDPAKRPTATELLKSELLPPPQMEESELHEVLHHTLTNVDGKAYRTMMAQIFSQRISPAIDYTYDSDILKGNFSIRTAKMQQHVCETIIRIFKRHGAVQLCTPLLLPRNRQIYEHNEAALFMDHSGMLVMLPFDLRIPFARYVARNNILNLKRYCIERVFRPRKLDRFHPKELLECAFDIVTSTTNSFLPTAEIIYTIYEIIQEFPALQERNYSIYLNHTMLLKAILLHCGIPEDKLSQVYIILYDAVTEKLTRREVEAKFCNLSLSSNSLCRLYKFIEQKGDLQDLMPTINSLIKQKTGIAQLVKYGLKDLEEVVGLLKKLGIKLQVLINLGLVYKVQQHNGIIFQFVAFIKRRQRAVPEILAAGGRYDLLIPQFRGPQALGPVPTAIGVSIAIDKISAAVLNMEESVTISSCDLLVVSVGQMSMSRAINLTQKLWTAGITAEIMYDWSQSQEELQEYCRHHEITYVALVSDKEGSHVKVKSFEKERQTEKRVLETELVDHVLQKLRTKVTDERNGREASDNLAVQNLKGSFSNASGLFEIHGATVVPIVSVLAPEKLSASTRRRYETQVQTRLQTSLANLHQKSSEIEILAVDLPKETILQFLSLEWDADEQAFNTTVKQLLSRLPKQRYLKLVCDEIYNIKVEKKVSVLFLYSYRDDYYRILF

For `COc1ncc(Cl)cc1S(=O)(=O)Nc1ccc(F)c([C@@H]2CCc3c(-c4ncc[nH]4)ncn3C2)c1F` [Compound 79-2, 5-chloro-N-[2,4-difluoro-3-[(6S)-1-(1H-imidazol-2-yl)-5H,6H,7H,8H-imidazo[1,5-a]pyridin-6-yl]phenyl]-2-methoxypyridine-3-sulfonamide], the IC50 was less than 50 nM.
